In patent US8906848B2, “Aureobasidin derivatives and methods of synthesis” (priority 2011, dated 2014):
Where two headings read alike, the source gives them in different places.

Legend:
[1] = tested on: Aspergillus candidus 450 (ATCC13686); experiment: MIC, antifungal spectrum (Table 3); type: cell-based
Procedure: (§1) The activities of several exemplary compounds of the present invention were assayed according to the CLSI standard M38-A2 titled “Reference Method for Broth Dilution Antifungal Susceptibility Testing of Filamentous Fungi”. However, the RPMI-1640 broth is substituted for a YPD medium formulated according to the following steps: […]
(§2) 1. Dissolve 10 g of BactoYeast extract in 500 ml water
(§3) 2. Dissolve 20 g of BactoPeptone in the above solution
(§4) 3. Dissolve 20 g Dextrose in the above solution* *Ordinary table sugar (sucrose) substituted for dextrose routinely.
(§5) 4. q.s. to 1000 ml with water

[2] = tested on: Aspergillus clavatus 638 (ATCC10058); experiment: MIC, antifungal spectrum (Table 3); type: cell-based
Procedure: as §1, §2, §3, §4, §5

[3] = tested on: Aspergillus flavus 122 (ATCC22546); experiment: MIC, antifungal spectrum (Table 3); type: cell-based
Procedure: as §1, §2, §3, §4, §5

[4] = tested on: Aspergillus flavus 4787 (ATCC204304); experiment: MIC, antifungal spectrum (Table 3); type: cell-based
Procedure: as §1, §2, §3, §4, §5

[5] = tested on: Aspergillus flavus 626 (ATCC64025); experiment: MIC, antifungal spectrum (Table 3); type: cell-based
Procedure: as §1, §2, §3, §4, §5

[6] = tested on: Aspergillus fumigatus 5280 (ATCC MYA-3626); experiment: MIC, antifungal spectrum (Table 3); type: cell-based
Procedure: as §1, §2, §3, §4, §5

[7] = tested on: Aspergillus fumigatus 891 (ATCC204305); experiment: MIC, antifungal spectrum (Table 3); type: cell-based
Procedure: as §1, §2, §3, §4, §5

[8] = tested on: Aspergillus niger 624 (ATCC16888); experiment: MIC, antifungal spectrum (Table 3); type: cell-based
Procedure: as §1, §2, §3, §4, §5

[9] = tested on: Aspergillus ochraceus 625 (ATCC96919); experiment: MIC, antifungal spectrum (Table 3); type: cell-based
Procedure: as §1, §2, §3, §4, §5

[10] = tested on: Candida albicans 104 (ATCC90028); experiment: MIC, antifungal spectrum (Table 3); type: cell-based
Procedure: as §1, §2, §3, §4, §5

[11] = tested on: Candida albicans 2000 (ATCC10231); experiment: MIC, antifungal spectrum (Table 3); type: cell-based
Procedure: as §1, §2, §3, §4, §5

[12] = tested on: Candida albicans 2486 (ATCC204276); experiment: MIC, antifungal spectrum (Table 3); type: cell-based
Procedure: as §1, §2, §3, §4, §5

[13] = tested on: Candida albicans 2487 (ATCC MYA-2732); experiment: MIC, antifungal spectrum (Table 3); type: cell-based
Procedure: as §1, §2, §3, §4, §5

[14] = tested on: Candida albicans 4782 (ATCC24433); experiment: MIC, antifungal spectrum (Table 3); type: cell-based
Procedure: as §1, §2, §3, §4, §5

[15] = tested on: Candida albicans 633 (ATCC90029); experiment: MIC, antifungal spectrum (Table 3); type: cell-based
Procedure: as §1, §2, §3, §4, §5

[16] = tested on: Candida glabrata 635 (ATCC90030); experiment: MIC, antifungal spectrum (Table 3); type: cell-based; settings: Nakaseomyces glabratus
Procedure: as §1, §2, §3, §4, §5

[17] = tested on: Candida guilliermondii 628 (ATCC34134); experiment: MIC, antifungal spectrum (Table 3); type: cell-based; settings: Meyerozyma guilliermondii
Procedure: as §1, §2, §3, §4, §5

[18] = tested on: Candida krusei 629 (ATCC14243); experiment: MIC, antifungal spectrum (Table 3); type: cell-based; settings: Pichia kudriavzevii
Procedure: as §1, §2, §3, §4, §5

[19] = tested on: Candida lusitaniae 631 (ATCC66035); experiment: MIC, antifungal spectrum (Table 3); type: cell-based; settings: Clavispora lusitaniae
Procedure: as §1, §2, §3, §4, §5

[20] = tested on: Candida parapsilosis 0630 (ATCC90018); experiment: MIC, antifungal spectrum (Table 3); type: cell-based; settings: Lodderomyces parapsilosis
Procedure: as §1, §2, §3, §4, §5

[21] = tested on: Candida parapsilosis 2323 (ATCC22019); experiment: MIC, antifungal spectrum (Table 3); type: cell-based; settings: Lodderomyces parapsilosis
Procedure: as §1, §2, §3, §4, §5

[22] = tested on: Candida tropicalis 4783 (ATCC750); experiment: MIC, antifungal spectrum (Table 3); type: cell-based
Procedure: as §1, §2, §3, §4, §5

[23] = tested on: Candida tropicalis 636 (ATCC90874); experiment: MIC, antifungal spectrum (Table 3); type: cell-based
Procedure: as §1, §2, §3, §4, §5

[24] = tested on: Emericella nidulans 637 (ATCC96921); experiment: MIC, antifungal spectrum (Table 3); type: cell-based; settings: Aspergillus nidulans
Procedure: as §1, §2, §3, §4, §5

[25] = tested on: Fusarium oxysporum 0893 (ATCC48112); experiment: MIC, antifungal spectrum (Table 3); type: cell-based; settings: at 96 hr, read-out: MIC
Procedure: as §1, §2, §3, §4, §5

[26] = tested on: Issatchenkia orientalis 2322 (ATCC6258); experiment: MIC, antifungal spectrum (Table 3); type: cell-based; settings: Pichia kudriavzevii
Procedure: as §1, §2, §3, §4, §5

[27] = tested on: Rhizopus oryzae 0890 (ATCC11886); experiment: MIC, antifungal spectrum (Table 3); type: cell-based; settings: Rhizopus arrhizus
Procedure: as §1, §2, §3, §4, §5

[28] = tested on: Saccharomyces cerevisiae 0639 (ATCC7754); experiment: MIC, antifungal spectrum (Table 3); type: cell-based
Procedure: as §1, §2, §3, §4, §5

[29] = tested on: Sporothrix schenkii 892 (ATCC14284); experiment: MIC, antifungal spectrum (Table 3); type: cell-based; settings: at 96 hrs, read-out: MIC
Procedure: as §1, §2, §3, §4, §5

[30] = tested on: Trychophyton mentagrophytes 5278 (ATCC MYA-4439); experiment: MIC, antifungal spectrum (Table 3); type: cell-based; settings: at 96 hrs, read-out: MIC
Procedure: as §1, §2, §3, §4, §5

[31] = tested on: Trychophyton mentagrophytes 640 (ATCC 28185); experiment: MIC, antifungal spectrum (Table 3); type: cell-based
Procedure: as §1, §2, §3, §4, §5

[32] = tested on: Trychophyton rubrum 5279 (ATCC MYA-4438); experiment: MIC, antifungal spectrum (Table 3); type: cell-based; settings: at 72 hrs, read-out: MIC
Procedure: as §1, §2, §3, §4, §5

[33] = tested on: Aspergillus fumigatus 5280 (ATCC MYA-3626); settings: at 48 hrs; cited from earlier work
[34] = tested on: Candida parapsilosis 2323 (ATCC22019); settings: cited from earlier work

C[C@@H]1[C@H](O)[C@@H](C)/C=C/C=C/C=C/C=C/C=C/C=C/C=C/[C@H](O[C@@H]2O[C@H](C)[C@@H](O)[C@H](N)[C@@H]2O)C[C@@H]2O[C@](O)(C[C@@H](O)C[C@@H](O)[C@H](O)CC[C@@H](O)C[C@@H](O)CC(=O)O[C@H]1C)C[C@H](O)[C@H]2C(=O)O [Amphotericin, Amphotericin B]
0.5-4 at 48 hrs μg/ml: Amphotericin B CLSI QC Range for A. Fumigatus ATCC MYA-3626 [33]
≤ 0.004 µg/mL: MIC ([2]; 48 hr reading)
1 µg/mL: MIC ([6]; 48 h, Aspergillus fumigatus 5280 (ATCC MYA-3626) no Tween, 48 hr reading) | MIC ([7]; 72 hr reading) | MIC ([21]; ATCC22019, 72 h, Candida parapsilosis 2323 (ATCC22019) no Tween, 72 hr reading) | MIC ([24]; 48 hr reading) | MIC [25]
0.06 µg/mL: MIC ([1]; 72 hr reading) | MIC ([12]; 48 hr reading) | MIC ([12]; 72 hr reading) | MIC ([13]; 48 hr reading) | MIC ([13]; 72 hr reading) | MIC ([20]; 48 hr reading) | MIC ([22]; 48 hr reading) | MIC ([23]; 48 hr reading) | MIC ([28]; 48 hr reading) | MIC ([28]; 72 hr reading) | MIC [30] | MIC ([31]; 48 hr reading)
0.25 µg/mL: MIC ([3]; 48 hr reading) | MIC ([3]; 72 hr reading) | MIC ([4]; 48 hr reading) | MIC ([4]; 72 hr reading) | MIC ([6]; 48 h, Aspergillus fumigatus 5280 (ATCC MYA-3626), 48 hr reading) | MIC ([7]; 48 hr reading) | MIC ([9]; 48 hr reading) | MIC ([21]; ATCC22019, 48 h, Candida parapsilosis 2323 (ATCC22019) no Tween, 48 hr reading) | MIC ([31]; 72 hr reading)
2 µg/mL: MIC ([6]; 72 h, Aspergillus fumigatus 5280 (ATCC MYA-3626) no Tween, 72 hr reading) | MIC ([24]; 72 hr reading)
0.6 µg/mL: MIC ([10]; 72 hr reading) | MIC ([11]; 72 hr reading) | MIC ([14]; 72 hr reading) | MIC ([15]; 72 hr reading)
0.25-2 (24 hrs) μg/ml: Amphotericin B CLSI QC Range for C. parapsilosis ([34]; 24 hrs)
0.3 µg/mL: MIC ([10]; 48 hr reading) | MIC ([11]; 48 hr reading) | MIC ([14]; 48 hr reading) | MIC ([15]; 48 hr reading)
0.03 µg/mL: MIC ([1]; 48 hr reading) | MIC ([8]; 48 hr reading) | MIC ([16]; 48 hr reading) | MIC ([19]; 72 hr reading) | MIC ([27]; 48 hr reading) | MIC ([27]; 72 hr reading) | MIC [32]
0.015 µg/mL: MIC ([2]; 72 hr reading) | MIC ([17]; 72 hr reading) | MIC ([19]; 48 hr reading)
0.125 µg/mL: MIC ([8]; 72 hr reading) | MIC ([16]; 72 hr reading) | MIC ([18]; 48 hr reading) | MIC ([18]; 72 hr reading) | MIC ([20]; 72 hr reading) | MIC ([21]; ATCC22019, 48 h, Candida parapsilosis 2323 (ATCC22019), 48 hr reading) | MIC ([21]; ATCC22019, 72 h, Candida parapsilosis 2323 (ATCC22019), 72 hr reading) | MIC ([22]; 72 hr reading) | MIC ([23]; 72 hr reading) | MIC ([26]; 48 hr reading) | MIC ([26]; 72 hr reading)
0.5-4 (48 hrs) μg/ml: Amphotericin B CLSI QC Range for C. parapsilosis ([34]; 48 hrs)
0.008 µg/mL: MIC ([17]; 48 hr reading)
0.5 µg/mL: MIC ([5]; 48 hr reading) | MIC ([5]; 72 hr reading) | MIC ([6]; 72 h, Aspergillus fumigatus 5280 (ATCC MYA-3626), 72 hr reading) | MIC ([9]; 72 hr reading) | MIC [29]
